System: MOLM-13 cells
Test: MOLM-13 Cell Proliferation Assay (indicator of DHODH inhibition)
Format: cell-based
Conditions: Homo sapiens, 72 Hours of culture, CellTiter-Glo, no uridine
In short: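 Proliferation readout via CellTiter-Glo luminescence after 72 h compound treatment (37 °C, 5% CO2, 0.5% DMSO) of MOLM-13 cells seeded at 10^4 per well in RPMI 1640/10% FBS, used as a DHODH-inhibition indicator since these cells rely on de novo pyrimidine synthesis.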

| SMILES | IC50 [nM] |
| --- | --- |
| FC(F)(F)c1ccnc(N2CCc3c([nH]c4ccc(Cl)cc34)C2c2ccc(Cl)cc2)n1 (stereo not drawn) [Compound 349, 6-chloro-1-(4-chlorophenyl)-2-[4-(trifluoromethyl)pyrimidin-2-yl]-2,3,4,9-tetrahydro-1H-pyrido[3,4-b]indole] | 3 |
| Cc1ccnc(N2CCc3c([nH]c4c(N)cc(Cl)cc34)C2c2ccc(N3CCOCC3)nc2)n1 (stereo not drawn) [Compound 351, 6-chloro-2-(4-methylpyrimidin-2-yl)-1-[6-(morpholin-4-yl)pyridin-3-yl]-2,3,4,9-tetrahydro-1H-pyrido[3,4-b]indol-8-amine] | 2.1 |
| Oc1ccccc1C1c2[nH]c3ccc(Cl)cc3c2CCN1c1nccc(C(F)(F)F)n1 (stereo not drawn) [Compound 353, 2-{6-chloro-2-[4-(trifluoromethyl)pyrimidin-2-yl]-2,3,4,9-tetrahydro-1H-pyrido[3,4-b]indol-1-yl}phenol] | 5.7 |
| Cc1ccc(C2c3[nH]c4ccc(Cl)cc4c3CCN2c2nccc(C(F)(F)F)n2)cc1F (stereo not drawn) [Compound 354, 6-chloro-1-(3-fluoro-4-methylphenyl)-2-[4-(trifluoromethyl)pyrimidin-2-yl]-2,3,4,9-tetrahydro-1H-pyrido[3,4-b]indole] | 2.2 |
| Cc1ccc(C2c3[nH]c4ccc(Cl)cc4c3CCN2c2nc(C(F)(F)F)cc(C(F)(F)F)n2)cc1 (stereo not drawn) [Compound 360, 2-[4,6-bis(trifluoromethyl)pyrimidin-2-yl]-6-chloro-1-(4-methylphenyl)-2,3,4,9-tetrahydro-1H-pyrido[3,4-b]indole] | 0.9 |
| Fc1cnc(N2CCc3c([nH]c4ccc(Cl)cc34)C2c2cnc(N3CCOCC3)nc2)nc1 (stereo not drawn) [Compound 364, 6-chloro-2-(5-fluoropyrimidin-2-yl)-1-[2-(morpholin-4-yl)pyrimidin-5-yl]-2,3,4,9-tetrahydro-1H-pyrido[3,4-b]indole] | 10.1 |
| Cc1nc(N2CCc3c([nH]c4ccc(Cl)cc34)C2c2ccc(N3CCOCC3)nc2)ncc1F (stereo not drawn) [Compound 365, 6-chloro-2-(5-fluoro-4-methylpyrimidin-2-yl)-1-[6-(morpholin-4-yl)pyridin-3-yl]-2,3,4,9-tetrahydro-1H-pyrido[3,4-b]indole] | 8 |
| Cc1nc(N2CCc3c([nH]c4ccc(Cl)cc34)C2c2cnc(N3CCOCC3)nc2)ncc1F (stereo not drawn) [Compound 366, 6-chloro-2-(5-fluoro-4-methylpyrimidin-2-yl)-1-[2-(morpholin-4-yl)pyrimidin-5-yl]-2,3,4,9-tetrahydro-1H-pyrido[3,4-b]indole] | 10 |
| Cc1nc(N2CCc3c([nH]c4ccc(Cl)cc34)C2c2ccc(N3CCOCC3)nc2)nc(C)c1F (stereo not drawn) [Compound 367, 6-chloro-2-(5-fluoro-4,6-dimethylpyrimidin-2-yl)-1-[6-(morpholin-4-yl)pyridin-3-yl]-2,3,4,9-tetrahydro-1H-pyrido[3,4-b]indole] | 4.7 |
| Cc1nc(N2CCc3c([nH]c4ccc(Cl)cc34)C2c2cnc(N3CCOCC3)nc2)nc(C)c1F (stereo not drawn) [Compound 368, 6-chloro-2-(5-fluoro-4,6-dimethylpyrimidin-2-yl)-1-[2-(morpholin-4-yl)pyrimidin-5-yl]-2,3,4,9-tetrahydro-1H-pyrido[3,4-b]indole] | 7.9 |
| Cc1nc(C)nc(N2CCc3c([nH]c4c(O)cc(Cl)cc34)C2c2cnc(N3CCOCC3)nc2)n1 (stereo not drawn) [Compound 370, 6-chloro-2-(4,6-dimethyl-1,3,5-triazin-2-yl)-1-[2-(morpholin-4-yl)pyrimidin-5-yl]-2,3,4,9-tetrahydro-1H-pyrido[3,4-b]indol-8-ol] | 8.1 |
| Fc1cccc(C2c3[nH]c4ccc(Cl)cc4c3CCN2c2nccc(C(F)(F)F)n2)c1 (stereo not drawn) [Compound 371, 6-chloro-1-(3-fluorophenyl)-2-[4-(trifluoromethyl)pyrimidin-2-yl]-2,3,4,9-tetrahydro-1H-pyrido[3,4-b]indole] | 8.8 |
| FC(F)(F)c1ccnc(N2CCc3c([nH]c4ccc(Cl)cc34)C2c2ccc(N3C[C@H]4C[C@@H]3CO4)nc2)n1 (stereo partly drawn) [Compound 373, 6-chloro-1-{6-[(1R,4R)-2-oxa-5-azabicyclo[2.2.1]heptan-5-yl]pyridin-3-yl}-2-[4-(trifluoromethyl)pyrimidin-2-yl]-2,3,4,9-tetrahydro-1H-pyrido[3,4-b]indole] | 4.6 |
| FC(F)(F)c1ccnc(N2CCc3c([nH]c4ccc(Cl)cc34)C2c2ccc(N3C[C@@H]4C[C@H]3CO4)nc2)n1 (stereo partly drawn) [Compound 375, 6-chloro-1-{6-[(1S,4S)-2-oxa-5-azabicyclo[2.2.1]heptan-5-yl]pyridin-3-yl}-2-[4-(trifluoromethyl)pyrimidin-2-yl]-2,3,4,9-tetrahydro-1H-pyrido[3,4-b]indole] | 6.7 |
| Cc1nc(C)nc(N2CCc3c([nH]c4ccc(Cl)cc34)C2c2ccc(N3C[C@H]4C[C@@H]3CO4)nc2)n1 (stereo partly drawn) [Compound 376, 6-chloro-2-(4,6-dimethyl-1,3,5-triazin-2-yl)-1-{6-[(1R,4R)-2-oxa-5-azabicyclo[2.2.1]heptan-5-yl]pyridin-3-yl}-2,3,4,9-tetrahydro-1H-pyrido[3,4-b]indole] | 33.2 |
| Cc1nc(C)nc(N2CCc3c([nH]c4ccc(Cl)cc34)C2c2ccc(N3C[C@@H]4C[C@H]3CO4)nc2)n1 (stereo partly drawn) [Compound 377, 6-chloro-2-(4,6-dimethyl-1,3,5-triazin-2-yl)-1-{6-[(1S,4S)-2-oxa-5-azabicyclo[2.2.1]heptan-5-yl]pyridin-3-yl}-2,3,4,9-tetrahydro-1H-pyrido[3,4-b]indole] | 41.6 |
| Cc1ccc(C2c3[nH]c4ccc(Cl)cc4c3CCN2c2nccc(C#N)n2)cc1 (stereo not drawn) [Compound 378, 2-[6-chloro-1-(4-methylphenyl)-1,3,4,9-tetrahydro-2H-pyrido[3,4-b]indol-2-yl]pyrimidine-4-carbonitrile] | 7 |
| Cc1ccc(C2c3[nH]c4ccc(Cl)cc4c3CCN2c2nc(C)cc(C#N)n2)cc1 (stereo not drawn) [Compound 379, 2-[6-chloro-1-(4-methylphenyl)-1,3,4,9-tetrahydro-2H-pyrido[3,4-b]indol-2-yl]-6-methylpyrimidine-4-carbonitrile] | 4.5 |
| Cc1nc(C)nc(N2CCc3c([nH]c4ccc(Cl)cc34)C2c2cnc(N3CCN(C)CC3)nc2)n1 (stereo not drawn) [Compound 380, 6-chloro-2-(4,6-dimethyl-1,3,5-triazin-2-yl)-1-[2-(4-methylpiperazin-1-yl)pyrimidin-5-yl]-2,3,4,9-tetrahydro-1H-pyrido[3,4-b]indole] | 26.3 |
| Fc1cnc(N2CCc3c([nH]c4ccc(Cl)cc34)C2c2ccc(N3CCOCC3)nc2)nc1 (stereo not drawn) [Compound 382, 6-chloro-2-(5-fluoropyrimidin-2-yl)-1-[6-(morpholin-4-yl)pyridin-3-yl]-2,3,4,9-tetrahydro-1H-pyrido[3,4-b]indole] | 13.4 |
| FC(F)(F)c1cnnc(N2CCc3c([nH]c4ccc(Cl)cc34)C2c2cnc(N3CCOCC3)nc2)n1 (stereo not drawn) [Compound 383, 6-chloro-1-[2-(morpholin-4-yl)pyrimidin-5-yl]-2-[5-(trifluoromethyl)-1,2,4-triazin-3-yl]-2,3,4,9-tetrahydro-1H-pyrido[3,4-b]indole] | 1.6 |
| Cc1cnnc(N2CCc3c([nH]c4ccc(Cl)cc34)C2c2cnc(N3CCOCC3)nc2)n1 (stereo not drawn) [Compound 384, 6-chloro-2-(5-methyl-1,2,4-triazin-3-yl)-1-[2-(morpholin-4-yl)pyrimidin-5-yl]-2,3,4,9-tetrahydro-1H-pyrido[3,4-b]indole] | 25.6 |
| Cc1ccc([C@H]2c3[nH]c4ccc(Cl)cc4c3CCN2c2ncc(F)c(C#N)n2)c(F)c1F [Compound 385, 2-[(1S)-6-chloro-1-(2,3-difluoro-4-methylphenyl)-1,3,4,9-tetrahydro-2H-pyrido[3,4-b]indol-2-yl]-5-fluoropyrimidine-4-carbonitrile] | 2.2 |
| Cc1ccc([C@H]2c3[nH]c4ccc(Cl)cc4c3CCN2c2nc(C(F)(F)F)nc(C(F)(F)F)n2)cc1 [Compound 386, (1S)-2-[4,6-bis(trifluoromethyl)-1,3,5-triazin-2-yl]-6-chloro-1-(4-methylphenyl)-2,3,4,9-tetrahydro-1H-pyrido[3,4-b]indole] | 0.3 |
| CSc1nc(N2CCc3c([nH]c4ccc(Cl)cc34)[C@@H]2c2ccc(C)c(F)c2F)nc(C(F)(F)F)n1 [Compound 389, (1S)-6-chloro-1-(2,3-difluoro-4-methylphenyl)-2-[4-(methylsulfanyl)-6-(trifluoromethyl)-1,3,5-triazin-2-yl]-2,3,4,9-tetrahydro-1H-pyrido[3,4-b]indole] | 0.8 |
| Cc1ccc([C@H]2c3[nH]c4ccc(Cl)cc4c3CCN2c2nc(C#N)nc(C(F)(F)F)n2)c(F)c1F [Compound 390, 4-[(1S)-6-chloro-1-(2,3-difluoro-4-methylphenyl)-1,3,4,9-tetrahydro-2H-pyrido[3,4-b]indol-2-yl]-6-(trifluoromethyl)-1,3,5-triazine-2-carbonitrile] | 3.5 |
| FC(F)(F)c1ccnc(N2CCc3c([nH]c4ccc(Cl)cc34)C2c2cnc(N3CC4(COC4)C3)nc2)n1 (stereo not drawn) [Compound 391, 6-chloro-1-[2-(2-oxa-6-azaspiro[3.3]heptan-6-yl)pyrimidin-5-yl]-2-[4-(trifluoromethyl)pyrimidin-2-yl]-2,3,4,9-tetrahydro-1H-pyrido[3,4-b]indole] | 5.7 |
| Cc1ccc([C@H]2c3[nH]c4ccc(Cl)cc4c3CCN2c2ncc(F)c(C#N)n2)cc1 [Compound 392, 2-[(1S)-6-chloro-1-(4-methylphenyl)-1,3,4,9-tetrahydro-2H-pyrido[3,4-b]indol-2-yl]-5-fluoropyrimidine-4-carbonitrile] | 3.1 |
| Cc1ccc([C@H]2c3[nH]c4ccc(Cl)cc4c3CCN2c2ncc(F)cn2)cc1 [Compound 393, (1S)-6-chloro-2-(5-fluoropyrimidin-2-yl)-1-(4-methylphenyl)-2,3,4,9-tetrahydro-1H-pyrido[3,4-b]indole] | 12.7 |
| Cc1ccc([C@H]2c3[nH]c4ccc(Cl)cc4c3CCN2c2ncc(F)c(C)n2)cc1 [Compound 394, (1S)-6-chloro-2-(5-fluoro-4-methylpyrimidin-2-yl)-1-(4-methylphenyl)-2,3,4,9-tetrahydro-1H-pyrido[3,4-b]indole] | 4.9 |
